Reference: ChEMBL document CHEMBL1154583, “Cytotoxic lavandulyl flavanones from Sophora flavescens” (J Nat Prod, 2000)
The source made the active and inactive calls. The rule behind the calls is not given here.

Tested on: HL-60
Assay: Cytotoxicity against human HL60 cells after 96 hrs by MTT assay
Type: functional, cell-based
Conditions: for IC50: HL-60, 96 h

C=C(C)[C@H](CC=C(C)C)Cc1c(O)cc(OC)c2c1O[C@H](c1ccc(O)cc1OC)CC2=O showed an IC50 of 13.7 µM.

With COc1ccc(-c2coc3cc(O)ccc3c2=O)cc1 the Activity was “inactive”.

C=C(C)[C@H](CC=C(C)C)Cc1c(O)cc(O)c2c1O[C@H](c1ccc(O)cc1O)CC2=O [SOPHORAFLAVANONE G] gave an IC50 of 12.5 µM.

Oc1ccc2c(c1)OC[C@H]1c3cc4c(cc3O[C@@H]21)OCO4 was tested, and the Activity was “inactive”.

C=C(C)C(CC=C(C)C)Cc1c(O)cc(OC)c2c1O[C@H](c1ccc(O)cc1O)CC2=O (stereo not given in full) [KURARINONE] was tested, and the IC50 was 18.5 µM.
